# Experimental data: paper PMC10194981, “Chemosensory protein regulates the behavioural response of Frankliniella intonsa and Frankliniella occidentalis to tomato zonate spot virus–Infected pepper (Capsicum annuum)” (PLOS Pathogens, 2023)
# What was measured:
# FintCSP1-Glu67Ala = FintCSP1-Glu67Ala (Frankliniella intonsa, UniProt A0A891LVF4, E67A); test: Fluorescence (1-NPN) binding and competitive binding assay, FintCSP1 mutant
# Method: (§1) The binding affinity of FintCSP1 and FoccCSP to the fluorescent probe N-phenyl-1-naphthylamine (1-NPN) was tested using a Spectramax M2 fluorescence spectrometer (Molecular Devices, USA) as reported previously. […] The 1-NPN/FintCSP1 or 1-NPN/FoccCSP mixture was excited at 280 nm, and the emission spectra were recorded at 415 nm. The binding constants (Kd) of FintCSP1 or FoccCSP to 1-NPN were calculated by Scatchard analysis using Prism 5 software (GraphPad, La Jolla, CA, USA). Assuming a protein activity of 100% and that the volatile compound binds to the protein in a 1:1 ratio at saturation, the dissociation constants (Ki) of FintCSP1 or FoccCSP for each ligand were calculated according to the IC50 (the concentration when the ligand replaces 50% of the probe) value of the volatile compounds. The Ki values were calculated according to the following equation: Ki = [IC50]/(1 + [1-NPN]/K1-NPN), where [1-NPN] is the free concentration of 1-NPN, and K1-NPN is the Kd of the 1-NPN/FintCSP1 or 1-NPN/FoccCSP.
# (§2) To verify the key amino acids of FintCSP1 and FoccCSP that bind to cis-3-hexenal, six amino acid residues of FintCSP1 were mutated (Lys26Ala, Phe27Ala, Thr28Ala, Glu67Ala, Ser84Ala, and the negative control residue Val132Ala) and nine amino acid residues of FoccCSP were mutated (Lys26Ala, Phe27Ala, Thr28Ala, Thr29Ala, Tyr31Ala, Asp64Ala, Glu67Ala, Gln87Ala, and the negative control residue Val132Ala) with the Fast Mutagenesis System Kit (Transgen Biotech, Beijing, China) using the pET-30a/FintCSP1 and pET-30a/FoccCSP plasmid DNA as template, respectively. Specific primers were designed using Primer Premier 5.0 according to the instructions of the Fast Mutagenesis System Kit (S1 Table). After validation by sequencing, each recombinant variant protein was produced and purified as described above, and their binding affinity to cis-3-hexenal was measured as described above.
# FintCSP1-Lys26Ala = FintCSP1-Lys26Ala (Frankliniella intonsa, UniProt A0A891LVF4, K26A); test: as above
# FintCSP1-Lys26Ala, sequence (A0A891LVF4 entry or part of it K26A): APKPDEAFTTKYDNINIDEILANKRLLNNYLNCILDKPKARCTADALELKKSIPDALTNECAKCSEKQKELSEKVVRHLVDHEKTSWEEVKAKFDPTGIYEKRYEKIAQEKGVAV
# Method: as §1, §2
# FintCSP1-Phe27Ala = FintCSP1-Phe27Ala (Frankliniella intonsa, UniProt A0A891LVF4, F27A); test: as above
# FintCSP1-Phe27Ala, sequence (A0A891LVF4 entry or part of it F27A): as the sequence (A0A891LVF4 entry or part of it K26A) above, with A7K, F8A counted along it
# Method: as §1, §2
# FoccCSP-Val132Ala = FoccCSP-Val132Ala (Frankliniella occidentalis, UniProt G4Y3X1, V132A); test: Fluorescence (1-NPN) binding and competitive binding assay, FoccCSP mutant (negative control residue)
# FoccCSP-Val132Ala, sequence (G4Y3X1 entry or part of it V132A): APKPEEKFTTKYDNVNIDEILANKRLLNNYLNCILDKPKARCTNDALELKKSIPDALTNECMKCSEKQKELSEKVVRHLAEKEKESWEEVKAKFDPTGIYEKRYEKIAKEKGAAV
# Method: The binding affinity of FintCSP1 and FoccCSP to the fluorescent probe N-phenyl-1-naphthylamine (1-NPN) was tested using a Spectramax M2 fluorescence spectrometer (Molecular Devices, USA) as reported previously. Volatile compounds and 1-NPN were first dissolved to a concentration of 1 mM in HPLC-grade methanol and dissolved to their indicated final concentration (2–20 μM) to titrate 2 μM protein solutions resuspended in 50 mM Tris-HCl (pH 7.4). The 1-NPN/FintCSP1 or 1-NPN/FoccCSP mixture was excited at 280 nm, and the emission spectra were recorded at 415 nm. The binding constants (Kd) of FintCSP1 or FoccCSP to 1-NPN were calculated by Scatchard analysis using Prism 5 software (GraphPad, La Jolla, CA, USA). Assuming a protein activity of 100% and that the volatile compound binds to the protein in a 1:1 ratio at saturation, the dissociation constants (Ki) of FintCSP1 or FoccCSP for each ligand were calculated according to the IC50 (the concentration when the ligand replaces 50% of the probe) value of the volatile compounds. The Ki values were calculated according to the following equation: Ki = [IC50]/(1 + [1-NPN]/K1-NPN), where [1-NPN] is the free concentration of 1-NPN, and K1-NPN is the Kd of the 1-NPN/FintCSP1 or 1-NPN/FoccCSP.
# as §2
# F. occidentalis antennae = test: Electroantennogram (EAG) assay; set-up: species or system Frankliniella occidentalis; settings: dsFoccCSP-injected compared to dsEGFP-injected F. occidentalis
# Method: The FintCSP1, FintCSP2, FintOBP, FintOR, FoccCSP, and enhanced green fluorescent protein (EGFP) coding sequences were obtained from GenBank under accession numbers MT199111, MT211602, OK067245, MT211603, AEP27186.1, and U55761.1, respectively. Primers were designed using Primer Premier 5.0, and the T7 promoter sequence (5′-[…]-3′) was added to the 5′ end of each primer (S1 Table). DNA fragments containing T7 promoter sequences were amplified by PCR using pEASY-T1/target gene or pUC-EGFP (preserved in the laboratory) plasmid DNA as template. Then, a double-stranded RNA (dsRNA) was produced from each target gene using the HiScribe T7 Quick High Yield RNA Synthesis Kit (New England Biolabs) according to the manufacturer’s instructions. […]
# At 24 h after dsRNA injection, the electrophysiological responses of F. intonsa antennae to six volatile components (i.e., m-cymene, cis-3-hexenal, (+)-2-carene, trans-2-hexenal, α-phellandrene, and α-humulene) or F. occidentalis antennae to cis-3-hexenal were recorded using EAG. […] The EAG values to volatile compounds were calculated using the following equation: absolute value of EAG reaction = reaction value of the tested sample—average value of two control measurements.
# FintCSP1-Glu67Ala, sequence (A0A891LVF4 entry or part of it E67A): as the sequence (A0A891LVF4 entry or part of it K26A) above, with A7K, E48A counted along it
smiles,measurement,setting,value
CC/C=C\CC=O [cis-3-hexenal],IC50,FintCSP1-Glu67Ala,> 100 µM
same,affinity for cis-3-hexenal (in words),"FintCSP1-Glu67Ala; FintCSP1-Glu67Ala, competitive fluorescent assay",no affinity
same,IC50,FintCSP1-Lys26Ala,> 100 µM
same,affinity for cis-3-hexenal (in words),"FintCSP1-Lys26Ala; FintCSP1-Lys26Ala, competitive fluorescent assay",no affinity
same,IC50,FintCSP1-Phe27Ala,53.5 ± 3.07 µM
same,Ki,FintCSP1-Phe27Ala,41.1 ± 2.36 µM
same,affinity for cis-3-hexenal (in words),FintCSP1-Phe27Ala; FintCSP1-Phe27Ala compared with wild-type FintCSP1,weaker affinity
same,IC50,FoccCSP-Val132Ala,28.7 ± 0.12 µM
same,Ki,FoccCSP-Val132Ala,23.69 ± 0.1 µM
same,binding to cis-3-hexenal (in words),FoccCSP-Val132Ala; FoccCSP-Val132Ala compared to the wild-type protein,only a minor change in binding
same,EAG response of FoccCSP-silenced antennae (in words),F. occidentalis antennae,significantly lower response
